Experimental data: patent US5677297A, “Benzazepine-, benzoxazepine- and benzothiazepine-n-acetic acid derivatives, process for their preparation and pharmaceutical compositions containing them” (Solvay Pharmaceuticals GmbH, priority 1995, dated 1997)

What was measured:
[1] = biological target: neutral endopeptidase (NEP), purified NEP (E.C.3.4.24.11) (Homo sapiens, UniProt P08473); assay: In vitro investigation of the NEP-inhibitory effect (hydrolytic degradation of met-enkephalin); format: biochemical; details: substrate met-enkephalin, 37° C., pH 7.4
Method: 2. In vitro investigation of the NEP-inhibitory effect of the substances and determination of the affinity of the substance molecules for the enzyme molecule. […] The Ki (inhibitor constant) of each substance was determined as a measure of its inhibitory activity. The Ki of a test substance with enzyme-inhibiting activity is the dissociation constant for the enzyme/test substance complex or the (enzyme/substrate)--test substance complex and has units of concentration.
To carry out the test, respective 100 μl samples of various incubation solutions containing 10 ng of purified NEP (E.C.3.4.24.11) and in each case different amounts of test substance and of substrate (met-enkephalin)and 50 mM tris buffer (=tris(hydroxymethyl)aminomethane/HCl, pH 7.4) were prepared.
For each test substance, 24 different incubation solutions were prepared with 3 different test substance concentrations respectively combined with met-enkephalin contents of 2, 5, 7, 10, 12, 15, 40 and 100 μm.
In each test, two types of control incubation solutions were also processed, on the one hand enzyme controls which contain no test substance, and on the other hand substrate controls which contain neither enzyme nor test substance.
The incubation solutions were incubated in a shaking water bath at 37° C. for 45 minutes. The enzyme reaction was started after 15 minutes by adding the substrate (metenkephalin) and was stopped at the end of the incubation time by heating at 95° C. for 5 minutes. The stopped incubation solution was then centrifuged at 12,000×g for 3 minutes, and the concentrations of unreacted substrate and of hydrolysis products formed by the enzymatic reaction were determined in the supernatant. For this purpose, samples of each of the respective supernatants were fractionated by HPLC (high-pressure liquid chromatography) on hydrophobized silica gel, and the products of the enzymatic reaction and unreacted substrate were determined by photometry at a wavelength of 205 nm. The HPLC separation was carried out using a column (4.6×250 mm) which contains Encapharm™ 100 RP18 having an average particle size of 5 μm as reversed phase separation material. The solvent flow rate was 1.4 ml/min, and the column was warmed to 40° C. Mobile phase A was 5 mM H3 PO4, pH 2.5, and mobile phase B was acetonitrile +1% 5 mM H3 PO4, pH 2.5.
The Ki for each test substance was calculated in a known manner from the concentrations of hydrolysis products and unreacted substrate measured in the various samples. […] The example numbers indicated in Table B refer to the following preparation examples.

[2] = In vivo determination of the effect on diuresis/natriuresis in volume-loaded rats; design: species or system rat (male Wistar); details: urine collected over 60 min
Method: 4. In vivo determination of the effect of the substances on diuresis/natriuresis in volume-loaded rats.
The in vivo activity was investigated in volume-loaded rats. In this experiment a high cardiac filling pressure was caused by infusion of isotonic sodium chloride solution, which results in ANP release and thus diuresis/natriuresis.
The tests are carried out with male Wistar rats having a body weight of 200-400 g. Under neuroleptanalgesia (fentanyl; Hypnorm™, manufactured by Janssen), a catheter was placed in the right femoral vein for the baseline infusion and the volume loading with isotonic sodium chloride solution. After the abdominal cavity had been opened, a second catheter was inserted into the bladder, and the urethra was tied off so that it was possible to measure the urine volume, natriuresis and kaliuresis.
The abdominal cavity was closed again and the animals received a continuous infusion with sodium chloride solution (0.5 ml/100 g body weight) throughout the 2 hours of the test. After an equilibration period of 30 minutes, in a preliminary phase before the test substance was given, urine samples were collected three times over a period of 10 minutes in each case. These preliminary values ("predrug" values) were determined in order to check that there was a continuous flow of urine in the test animals.
The solutions containing test substances were then administered intravenously (bolus injection into the femoral vein) or orally (by gavage) to groups of 10 rats each. With both modes of administration, in each case one control group of animals received only placebo solutions which contained no active substance. 5 Minutes after i.v. administration or 120 minutes after oral administration of the substances, the rats were loaded with an increased volume of sodium chloride solution i.v. (2 ml/100 g body weight in 2 minutes) and the urine was collected over a period of 60 min. The amounts of urine produced in this period were determined, and the sodium and potassium contents therein were measured. The increase in excretion which took place under volume loading by comparison with the preliminary values was deduced from the resulting amounts of urine.
Furthermore, the amounts of sodium and potassium excreted under volume loading after administration of test substance are also indicated as a percentage of the amounts of sodium and potassium excreted under volume loading after placebo administration.

neutral endopeptidase (NEP), purified NEP (E.C.3.4.24.11), sequence (P08473 whole entry): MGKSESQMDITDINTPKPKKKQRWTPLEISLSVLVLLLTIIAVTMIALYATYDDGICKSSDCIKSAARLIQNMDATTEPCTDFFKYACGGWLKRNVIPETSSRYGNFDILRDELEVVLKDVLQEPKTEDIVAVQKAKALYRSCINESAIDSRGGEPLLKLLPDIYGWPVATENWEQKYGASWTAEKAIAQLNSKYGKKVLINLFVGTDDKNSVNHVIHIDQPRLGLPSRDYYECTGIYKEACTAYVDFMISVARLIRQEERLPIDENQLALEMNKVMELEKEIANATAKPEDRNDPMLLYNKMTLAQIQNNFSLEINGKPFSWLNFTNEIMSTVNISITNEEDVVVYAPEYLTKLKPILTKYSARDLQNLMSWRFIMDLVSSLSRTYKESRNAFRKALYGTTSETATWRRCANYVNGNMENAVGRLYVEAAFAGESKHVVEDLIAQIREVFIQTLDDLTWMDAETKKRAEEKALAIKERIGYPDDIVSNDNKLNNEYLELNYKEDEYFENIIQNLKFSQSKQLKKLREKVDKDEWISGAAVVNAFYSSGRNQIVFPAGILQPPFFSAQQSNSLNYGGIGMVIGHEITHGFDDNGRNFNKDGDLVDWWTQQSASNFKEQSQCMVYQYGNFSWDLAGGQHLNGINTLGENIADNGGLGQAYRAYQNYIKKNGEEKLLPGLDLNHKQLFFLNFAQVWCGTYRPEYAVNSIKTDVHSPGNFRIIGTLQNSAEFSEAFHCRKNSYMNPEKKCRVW

O=C(O)CN1C(=O)[C@@H](NC(=O)C2(C[C@@H](CCc3ccccc3)C(=O)O)CCCC2)CCc2ccccc21 [Example 8, (3S,2'R)-3-[1-(2'-Carboxy-4'-phenylbutyl)cyclopentane-1-carbonylamino]-2,3,4,5-tetrahydro-2-oxo-1H-1-benzazepine-1-acetic acid]
Ki [1]: 0.4 nM
Increase in the excretion of urine under volume loading after administration of test substance as % based on the increase after placebo administration ([2]; 0.1 mg/kg i.v.): 123.5%
Increase in the excretion of urine under volume loading after administration of test substance as % based on the increase after placebo administration ([2]; 1.0 mg/kg i.v.): 153.7%
K excretion under volume loading, amount excreted after administration of test substance as % of the amount excreted after placebo administration ([2]; 0.1 mg/kg i.v.): 80.8%
K excretion under volume loading, amount excreted after administration of test substance as % of the amount excreted after placebo administration ([2]; 1.0 mg/kg i.v.): 121.8%
Na excretion under volume loading, amount excreted after administration of test substance as % of the amount excreted after placebo administration ([2]; 0.1 mg/kg i.v.): 160.9%
Na excretion under volume loading, amount excreted after administration of test substance as % of the amount excreted after placebo administration ([2]; 1.0 mg/kg i.v.): 230.4%
